This note sets out measurements from patent publication US3965109A, “Certain aryl amino pyridines” (priority 1971, dated 1976).

For series [1], the system named is Pieris brassicae (cabbage white caterpillars). The series can be described thus: Pest toxicity test. Format: in vivo. Particulars: 0.1% by weight, 2 days.
The subject of another series is Xanthomonas malvacearum. The series can be described thus: Antibacterial agar test (B3). Particulars: 50 ppm; 5 days. The series is classed as cell-based. In a few lines: (§1)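 Compound was dissolved or suspended in acetone and mixed into nutrient agar to 50 ppm final, then dried overnight in Petri dishes. Plates were inoculated with the bacteria via multipoint inoculator and antibacterial activity was graded after 5 days.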

In the next series the test system is Erwinia carotovora. The series can be described thus: Antibacterial agar test (B4). Format: cell-based. The note with it: 50 ppm; 5 days.
For series [2], the system named is Piricularia oryzae (rice). The series is classed as in vivo. The note with it: 7 days.
In series [3] the test system is Puccinia recondita (wheat). The series can be described thus: Fungicidal test against foliar disease A (foliage spray plus soil drench). Format: in vivo. The note with it: 10 days.
Series [4] concerns Plutella maculipennis (diamond back moth larvae). The series can be described thus: Pest toxicity test. Format: in vivo. The note with it: in vivo.
In series [5] the test system is Venturia inaequalis (apple). The series can be described thus: Fungicidal test against foliar disease G (foliage spray plus soil drench). Format: in vivo. The note with it: 21 days. The procedure:
This Example illustrates the fungicidal properties of compounds used as active ingredients in the compositions of the invention. The compounds were tested against a wide variety of foliar fungal diseases of plants. In the test, a composition comprising an aqueous solution or suspension of the test compound was sprayed on to the foliage or uninfected plants; the soil in which the plants were growing was also drenched with the composition. The compositions used for spraying and drencing contained 100 parts per million (ppm.) of the test compound except where otherwise stated in the table of results below. After spraying and drenching, the plants were then exposed to infection with the diseases it was desired to control, along with control plants not treated with the compound. After a period of days, depending upon the particular disease, the extent of the disease was visually assessed, as a percentage of the disease established upon the control plants which had not been treated with the compound under test, according to the grading scheme below
In Table 2 below the names of the disease is given in the first column, and in the second column is given the time which elapsed between exposing the plants to infection and assessing the amount of disease.

The test system of another series is Streptomyces scabies. Put plainly: Antibacterial agar test (B7). Format: cell-based. The note with it: 50 ppm; 5 days.
The subject of a further series is Xanthomonas oryzae. The series is classed as cell-based. The note with it: 50 ppm; 5 days.
A further series deals with Aphis fabae. Put plainly: Pest toxicity test. The series is classed as in vivo. The note with it: 0.1% by weight; broad bean; 2 days.
Series [6] deals with Tetranychus telarius (red spider mites, eggs). The series can be described thus: Pest toxicity test. Particulars: 0.1% by weight; French bean; 3 days. Format: in vivo.
For series [7], the system named is Plasmopara viticola (vine). The series can be described thus: Fungicidal test against foliar disease C (foliage spray plus soil drench). Particulars: 10 days. Format: in vivo.
The subject of the next series is Pseudomonas syringae. Put plainly: Antibacterial agar test (B6). The series is classed as cell-based. Particulars: 50 ppm; 5 days.
For series [8], the system named is Musca domestica (houseflies). Put plainly: Pest toxicity test, contact test. The series is classed as in vivo. The note with it: 0.1% by weight; milk/sugar; 2 days; flies sprayed directly.
Series [9] has as its system Tetranychus telarius (red spider mites, adults). The series can be described thus: Pest toxicity test. The series is classed as in vivo. Particulars: 0.1% by weight; French bean; 3 days.
The subject of series [10] is Agrobacterium tumifaciens. Put plainly: Antibacterial agar test (B1). The series is classed as cell-based. The note with it: 50 ppm; 5 days.
The test system of series [11] is Phaedon cochleariae (mustard beetles). Put plainly: Pest toxicity test. The series is classed as in vivo. Particulars: in vivo.
In a further series the test system is Megoura viceae. Put plainly: Pest toxicity test. The series is classed as in vivo. Particulars: 0.1% by weight; broad bean; 2 days.
For series [12], the system named is Aedes aegypti (mosquito larvae). The series can be described thus: Pest toxicity test. Format: in vivo. The note with it: 0.01% by weight; water; 1 day.
For series [13], the system named is Corynebacterium michiganense. The series can be described thus: Antibacterial agar test (B2). The series is classed as cell-based. The note with it: 50 ppm; 5 days. The procedure, abridged:
as §1

Series [14] relates to Aedes aegypti (mosquito adults). The series can be described thus: Pest toxicity test. The series is classed as in vivo. Particulars: 0.01% by weight; plywood; 1 day.
Another series relates to Uncinula necator (vine). Put plainly: Fungicidal test against foliar disease D (foliage spray plus soil drench). The series is classed as in vivo. Particulars: 10 days.
For series [15], the system named is Meloidogyne incognita (nematodes). The series can be described thus: Pest toxicity test. The series is classed as in vivo. The note with it: 0.01% by weight; water; 1 day.
The next series relates to Maize. Put plainly: Herbicidal test, pre- and post-emergence. The note with it: 10 kg/ha; scale 0 to 3 (complete kill). The series is classed as in vivo.
For series [16], the system named is Agriolimax reticulatus (slugs). Put plainly: Molluscicidal activity test. Particulars: pellet with 4% by weight; 6 days; 10°C. Format: in vivo, Agriolimax reticulatus (Mull). In a few lines:
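Compound was applied to a calf feeding pellet at 4% by weight active ingredient after 24 h air drying. Two replicates, each of 2 slugs starved 24 h, were kept with a moist filter paper at 10°C, and kill was assessed after 6 days.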

The subject of another series is Lettuce. The series can be described thus: Herbicidal test, pre- and post-emergence. The series is classed as in vivo. The note with it: 10 kg/ha; scale 0 to 3 (complete kill).
The next series deals with Wheat. The series can be described thus: Herbicidal test, pre- and post-emergence. Format: in vivo. Particulars: 10 kg/ha; scale 0 to 3 (complete kill).
The test system of the next series is Tomato. The series can be described thus: Herbicidal test, pre- and post-emergence. The series is classed as in vivo. Particulars: 10 kg/ha; scale 0 to 3 (complete kill).
In series [17] the test system is Phytophthora infestans (tomato). The series is classed as in vivo. The note with it: 50 ppm spray + 200 ppm soil drench; 3 days.
Setting [18] is: 50 ppm spray + 200 ppm soil drench.

SMILES strings stand for the structures. Read-outs that look alike come from different tables or passages of the source.

Take `COc1nc(F)c(Cl)c(Nc2c(F)c(F)c(C#N)c(F)c2F)c1Cl` [Compound 21, 2-Fluoro-3,5-dichloro-6methoxy-4(4-cyano-2,3,5,6-tetrafluoroanilino)pyridine]: the “Mortality grading (kill)” value in series [1] was 0 (O represents less than 30% kill); in series [4], 1 (key: O represents less than 30% kill; 1 represents 30 - 49% kill; 2 represents 60 - 90% kill; 3 represents over 90% kill; C indicates a chemosterilant effect.; A indicates an antifeeding effect.); with Aphis fabae, 0 (O represents less than 30% kill); in [6] it was 0 (O represents less than 30% kill); in [9] it was 0 (O represents less than 30% kill); in series [11] it was 0 (key: O represents less than 30% kill; 1 represents 30 - 49% kill; 2 represents 60 - 90% kill; 3 represents over 90% kill; C indicates a chemosterilant effect.; A indicates an antifeeding effect.). Moreover, the entries for the “Mortality grading (kill)” value (with Megoura viceae; in series [12]; in [14]) were 0 (O represents less than 30% kill), 3 (3 represents over 90% kill) and 0 (O represents less than 30% kill), respectively. Besides, the “Antibacterial activity grading B3” value in the series on Xanthomonas malvacearum is 3 (0 to 5). Moreover, in the series with Erwinia carotovora, the “Antibacterial activity grading B4” value was 3 (0 to 5). Also, the “Amount of disease grading, disease E” value in series [2] (100 ppm spray and drench) was 3 (0 to 5). Moreover, the “Amount of disease grading, disease A” value in series [3] (100 ppm spray and drench) is 3 (0 to 5). The “Amount of disease grading, disease G” value in [5] (100 ppm spray and drench) was 3 (0 to 5). Besides, the “Antibacterial activity grading B7” value in the series on Streptomyces scabies was 3 (0 to 5). For the same compound, in the series on Xanthomonas oryzae, the “Antibacterial activity grading B5” value is given as 2 (6 to 25). The “Amount of disease grading, disease C” value in series [7] (100 ppm spray and drench) was 3 (0 to 5). The “Antibacterial activity grading B6” value in the series with Pseudomonas syringae is listed as 3 (0 to 5). The “Mortality grading (kill), contact test” value in series [8] is recorded as 2 (2 represents 60 - 90% kill). In series [10], the “Antibacterial activity grading B1” value was 2 (6 to 25). Moreover, in series [13], the “Antibacterial activity grading B2” value was 3 (0 to 5).

Take `O=[N+]([O-])c1cc(Cl)cc([N+](=O)[O-])c1Nc1c(Cl)c(F)nc(F)c1Cl` [Compound 29, 3,5-Dichloro-2,6-difluoro-4(4-chloro-2,6-dinitroanilino)pyridine]: the “Mortality grading (kill)” value is 0 (O represents less than 30% kill) in series [1]; 0 (O represents less than 30% kill) in series [15]; 0 (key: O represents less than 30% kill; 1 represents 30 - 49% kill; 2 represents 60 - 90% kill; 3 represents over 90% kill; C indicates a chemosterilant effect.; A indicates an antifeeding effect.) in series [4]; 3 (3 represents over 90% kill) in the series with Aphis fabae; 3 (3 represents over 90% kill) in series [9]; 0 (key: O represents less than 30% kill; 1 represents 30 - 49% kill; 2 represents 60 - 90% kill; 3 represents over 90% kill; C indicates a chemosterilant effect.; A indicates an antifeeding effect.) in [11]. The results for the “Mortality grading (kill)” value (with Megoura viceae; in series [12]; in series [14]) were 3 (3 represents over 90% kill), 3 (3 represents over 90% kill) and 0 (O represents less than 30% kill), respectively. Also, in the series with Xanthomonas malvacearum, the “Antibacterial activity grading B3” value is reported as 3 (0 to 5). Also, the “Antibacterial activity grading B4” value in the series with Erwinia carotovora was 3 (0 to 5). For the same compound, the “Amount of disease grading, disease D (Table 4)” value in the series on Uncinula necator (vine) (100 ppm spray and drench) was 3 (0 to 5). For the same compound, the “Damage to plants, post-emergence” value in the series on Maize, in the series with Lettuce, in the series on Wheat and in the series on Tomato was 0 throughout. For the same compound, the “Damage to plants, pre-emergence” value in the series on Maize was determined as 0; in the series with Lettuce it was 3; in the series with Wheat it was 3; with Tomato, 3. The “Antibacterial activity grading B7” value in the series on Streptomyces scabies was 3 (0 to 5). Besides, the “Antibacterial activity grading B5” value with Xanthomonas oryzae is recorded as 3 (0 to 5). In [16], the “% Kill of slugs” value was determined as 50%. In addition, the “Amount of disease grading, disease C (Table 4)” value in [7] (100 ppm spray and drench) was 3 (0 to 5). Further, the “Antibacterial activity grading B6” value in the series with Pseudomonas syringae is 3 (0 to 5). Also, the “Mortality grading (kill), contact test” value in series [8] is recorded as 0 (O represents less than 30% kill). Besides, the “Antibacterial activity grading B1” value in series [10] was 3 (0 to 5). In addition, the “Antibacterial activity grading B2” value in series [13] is on record as 3 (0 to 5).

On to `Fc1nc(F)c(Cl)c(Nc2c(Cl)cccc2Cl)c1Cl` [Compound 3, 3,5-Dichloro-2,6-difluoro-4(2,6-dichloroanilino)pyridine], for which the “Mortality grading (kill)” value in series [1] is on record as 0 (O represents less than 30% kill); in series [15], 2 (2 represents 60 - 90% kill); in series [4] it was 0 (key: O represents less than 30% kill; 1 represents 30 - 49% kill; 2 represents 60 - 90% kill; 3 represents over 90% kill; C indicates a chemosterilant effect.; A indicates an antifeeding effect.); in the series with Aphis fabae it was 0 (O represents less than 30% kill); in series [6], 2 (2 represents 60 - 90% kill); in series [9] it was 0 (O represents less than 30% kill). For the same compound, the “Mortality grading (kill)” value in [11] is listed as 0 (key: O represents less than 30% kill; 1 represents 30 - 49% kill; 2 represents 60 - 90% kill; 3 represents over 90% kill; C indicates a chemosterilant effect.; A indicates an antifeeding effect.); in the series with Megoura viceae, 0 (O represents less than 30% kill); in [12] it was 0 (O represents less than 30% kill); in series [14] it was 0 (O represents less than 30% kill). The “Amount of disease grading, disease D” value with Uncinula necator (vine) (setting [18]) was 3 (0 to 5). For the same compound, the “Amount of disease grading, disease B” value in series [17] is recorded as 0 (61 to 100). In addition, in [2] (setting [18]), the “Amount of disease grading, disease E” value was 0 (61 to 100). For the same compound, the “Amount of disease grading, disease A” value in series [3] (setting [18]) was 0 (61 to 100). Also, the “Amount of disease grading, disease G” value in series [5] (setting [18]) is 0 (61 to 100). For the same compound, the “Amount of disease grading, disease C” value in [7] (setting [18]) is 2 (6 to 25). For the same compound, the “Mortality grading (kill), contact test” value in [8] is given as 0 (O represents less than 30% kill).
